In the NIST ThermoML archive (doi:10.1007/s10765-009-0648-5):
± gives the expanded uncertainty stated by the source.

Assay: wn = mass fraction of the nth substance listed
Conditions: 101 kPa, Liquid

CCC[n+]1ccn(C)c1.[Br-] [1-methyl-3-propylimidazolium bromide] + CC#N
Conditions	mass density, 288.15 K [kg/m3]	mass density, 293.15 K [kg/m3]	mass density, 298.15 K [kg/m3]	mass density, 303.15 K [kg/m3]	mass density, 308.15 K [kg/m3]	speed of sound, 288.15 K [m/s]	speed of sound, 293.15 K [m/s]	speed of sound, 298.15 K [m/s]	speed of sound, 303.15 K [m/s]	speed of sound, 308.15 K [m/s]
w1 = 0.0042	788.991 ± 1.4	783.623 ± 1.4	778.237 ± 1.4	772.813 ± 1.4	767.37 ± 1.5	1320.2 ± 1.4	1300.1 ± 1.4	1280 ± 1.4	1259.7 ± 1.4	1239.6 ± 1.4
w1 = 0.0061	789.726 ± 1.4	784.364 ± 1.4	778.979 ± 1.4	773.562 ± 1.4	768.119 ± 1.5	1320.5 ± 1.4	1300.3 ± 1.4	1280.2 ± 1.4	1260 ± 1.4	1240.1 ± 1.4
w1 = 0.0082	790.532 ± 1.4	785.181 ± 1.4	779.798 ± 1.4	774.387 ± 1.4	768.949 ± 1.5	1321.1 ± 1.4	1301.1 ± 1.4	1281 ± 1.4	1260.9 ± 1.4	1240.8 ± 1.4
w1 = 0.0107	791.47 ± 1.4	786.115 ± 1.4	780.735 ± 1.4	775.331 ± 1.4	769.896 ± 1.5	1321.5 ± 1.4	1301.3 ± 1.4	1281.2 ± 1.4	1261.1 ± 1.4	1241.2 ± 1.4
w1 = 0.0124	792.123 ± 1.4	786.772 ± 1.4	781.397 ± 1.4	775.996 ± 1.4	770.564 ± 1.5	1322 ± 1.4	1302 ± 1.4	1281.9 ± 1.4	1261.8 ± 1.4	1241.7 ± 1.4
w1 = 0.0161	793.533 ± 1.3	788.186 ± 1.4	782.814 ± 1.4	777.417 ± 1.4	771.996 ± 1.4	1322.6 ± 1.4	1302.5 ± 1.4	1282.4 ± 1.4	1262.3 ± 1.4	1242.5 ± 1.4
w1 = 0.0206	795.242 ± 1.3	789.902 ± 1.4	784.538 ± 1.4	779.149 ± 1.4	773.734 ± 1.4	1323.5 ± 1.4	1303.4 ± 1.4	1283.4 ± 1.4	1263.4 ± 1.4	1243.5 ± 1.4
w1 = 0.0251	796.939 ± 1.3	791.606 ± 1.4	786.248 ± 1.4	780.864 ± 1.4	775.46 ± 1.4	1324.4 ± 1.4	1304.3 ± 1.4	1284.3 ± 1.4	1264.4 ± 1.4	1244.6 ± 1.4
w1 = 0.0298	798.688 ± 1.3	793.361 ± 1.4	788.011 ± 1.4	782.637 ± 1.4	777.238 ± 1.4	1325.3 ± 1.4	1305.3 ± 1.4	1285.3 ± 1.4	1265.4 ± 1.4	1245.6 ± 1.4
w1 = 0.0347	800.578 ± 1.3	795.262 ± 1.3	789.919 ± 1.4	784.553 ± 1.4	779.16 ± 1.4	1326.4 ± 1.4	1306.5 ± 1.4	1286.6 ± 1.4	1266.7 ± 1.4	1246.8 ± 1.4
w1 = 0.0407	802.812 ± 1.3	797.5 ± 1.3	792.166 ± 1.4	786.808 ± 1.4	781.426 ± 1.4	1327.3 ± 1.4	1307.4 ± 1.4	1287.5 ± 1.4	1267.6 ± 1.4	1248 ± 1.4
w1 = 0.0493	806.071 ± 1.3	800.772 ± 1.3	795.452 ± 1.3	790.107 ± 1.4	784.738 ± 1.4	1329.1 ± 1.4	1309.3 ± 1.4	1289.4 ± 1.4	1269.6 ± 1.4	1249.8 ± 1.4
w1 = 0.0605	810.335 ± 1.3	805.049 ± 1.3	799.743 ± 1.3	794.412 ± 1.4	789.059 ± 1.4	1331 ± 1.4	1311.1 ± 1.4	1291.3 ± 1.4	1271.6 ± 1.4	1252.1 ± 1.4
w1 = 1	1323.47 ± 3.3	1319.84 ± 3.3	1316.22 ± 3.3	1312.6 ± 3.2	1308.97 ± 3.2	1699.3 ± 2.6	1685 ± 2.6	1672 ± 2.6	1659.9 ± 2.6	1648.3 ± 2.6
